Experimental data reported in patent US4654362A, “Derivatives of 2,2'-iminobisethanol” (Janssen Pharmaceutica, N.V., priority 1984, dated 1987).

Legend:
guinea pig atrium (β1) = target: T1, guinea pig atrium (β1) (Cavia porcellus, UniProt H0W3H1); test: Guinea-pig right atrium test: inhibition of isoprenaline-induced increase in heart rate (β1-adrenergic receptor blocking activity, in vitro); settings: isolated right atrium, 30 min incubation, 37.5° C., estimated graphically, read-out: ED50 value on guinea pig atrium (β1) (converted)
T1 construct: Spontaneously beating right atria were dissected from guinea-pigs; from tissue; host or cells: guinea-pig right atrium (strip including the sinoatrial node)
T1 sequence (H0W3H1 1-470): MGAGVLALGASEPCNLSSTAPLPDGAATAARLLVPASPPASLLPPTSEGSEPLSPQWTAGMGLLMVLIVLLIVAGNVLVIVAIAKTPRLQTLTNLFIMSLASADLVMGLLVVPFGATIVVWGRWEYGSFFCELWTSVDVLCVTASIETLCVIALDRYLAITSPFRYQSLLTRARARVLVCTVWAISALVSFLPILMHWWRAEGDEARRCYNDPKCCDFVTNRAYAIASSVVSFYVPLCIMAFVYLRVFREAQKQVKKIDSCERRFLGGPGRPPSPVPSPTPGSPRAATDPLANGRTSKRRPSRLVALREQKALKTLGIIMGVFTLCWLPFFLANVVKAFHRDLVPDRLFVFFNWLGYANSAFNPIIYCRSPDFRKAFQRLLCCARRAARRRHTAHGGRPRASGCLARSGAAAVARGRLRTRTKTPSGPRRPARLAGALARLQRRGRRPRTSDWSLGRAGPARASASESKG
Experimental: 1. Guinea-pig right atrium (β1)
Spontaneously beating right atria were dissected from guinea-pigs (400±50 g). A triangular strip of atrium, including the sinoatrial node was excised together with the anterior vena cava.
The vena was fixed to a glass muscle holder and the opposite atrial muscle was connected to a Grass isometric transducer. […] Heart rate and contractile force were recorded by means of a Grass FT03C isometric transducer. Output signals amplified by an isometric transducer amplifier (J.S.I.) via a cardiotachometer (J.S.I.) were recorded on Honeywell XYY' recorder.
After washing out isoprenaline a stabilisation period of 15 min. was allowed. A drug was then added to the bath fluid for 30 min. During this incubation period possible direct chronotropic and inotropic effects of the drug were determined. Following this, a second dose-response curve for isoprenaline was produced by infusion during 10 minutes (b). The slope of the increase in rate was graphically estimated for each period of isoprenaline addition and the ratio b/a was calculated. Based on solvent experiments a ratio of less than 0.70 was considered as the criterion of inhibitory activity. ED50 -values were estimated graphically.

guinea pig trachea (β2) = target: T2, guinea pig trachea (β2) (Cavia porcellus, UniProt Q8K4Z4); test: Guinea-pig tracheal ring test: inhibition of isoprenaline-induced relaxation (β2-adrenergic receptor blocking activity, in vitro); settings: for β2 /β1: ratio of ED50 trachea (β2) to ED50 right atrium (β1), index of cardioselectivity; for IC50: tracheal ring, methacholine 1 μg/ml, isoprenaline 0.08 μg/ml, 30 min, 35° C., probit analysis, read-out: ED50 value on guinea pig trachea (β2) (converted)
T2 construct: The trachea was dissected from guinea-pigs; from tissue; host or cells: guinea-pig tracheal rings (tracheal smooth muscle)
T2 sequence (Q8K4Z4 whole entry): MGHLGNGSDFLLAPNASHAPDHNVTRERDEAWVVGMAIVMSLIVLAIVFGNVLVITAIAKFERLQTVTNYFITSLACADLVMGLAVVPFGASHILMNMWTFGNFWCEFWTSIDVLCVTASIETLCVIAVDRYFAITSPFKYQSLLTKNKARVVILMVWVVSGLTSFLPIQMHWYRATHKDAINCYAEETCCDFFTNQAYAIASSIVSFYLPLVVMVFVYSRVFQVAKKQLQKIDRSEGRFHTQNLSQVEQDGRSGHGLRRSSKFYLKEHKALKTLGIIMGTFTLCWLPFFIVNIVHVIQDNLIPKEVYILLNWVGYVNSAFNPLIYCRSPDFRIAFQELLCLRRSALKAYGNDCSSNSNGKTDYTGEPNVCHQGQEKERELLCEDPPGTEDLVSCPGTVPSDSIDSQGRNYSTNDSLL
Description: 2. Guinea-pig tracheal ring (β2)
The trachea was dissected from guinea-pigs (400±50 g). Four rings, approximately 8 mm. in width, were then cut from each trachea. Cartilaginous parts of the tracheal ring were mounted horizontally between two metal rods, one of which was attached to a glass organholder, the other rod being connected to a Grass isometric transducer. Using such a technique the tracheal smooth muscle is suspended optimally i.e. midway between the cartilaginous parts. […] The preparation was maintained at tension of 1.5 g throughout the experiment. Tension changes recorded were thus an expression of contraction or relaxation. After a stabilisation period of 30 min. contraction was induced by adding methacholine (1 μg/ml) to the bath for a 10 min. period. […] This procedure was repeated twice before adding the drug (t-33'; t-19') and once 30 min. after addition of the drug. During the incubation period any direct effects of the drug were measured.
The ratio of the ED50 -values obtained in respectively the tracheal ring test (β2) and in the right atrium test (β1) may be considered as an index of the cardioselectivity of the test drug.

| Compound | IC50 (guinea pig atrium (β1)) | β2 /β1 (guinea pig trachea (β2)) | IC50 (guinea pig trachea (β2)) |
| --- | --- | --- | --- |
| OC(CNCC(O)C1CCc2ccccc2O1)C1CCc2ccccc2O1 (stereo not drawn) [Compound 74, (A^+ A^+)-α,α'-[iminobis(methylene)]bis[3,4-dihydro-2H-1-benzopyran-2-methanol]] | 0.65 nM | 12,500 | 8120 nM |
| Cc1cc(C)c2c(c1)OC(C(O)CNCC(O)C1CCc3ccccc3O1)CC2 (stereo not drawn) [Compound 106] | – | > 1000 | – |
| CC(=O)Nc1ccc2c(c1)CCC(C(O)CNCC(O)C1CCc3ccccc3O1)O2 (stereo not drawn) [Compound 94] | ≥ 5.86 nM | – | – |
| CC1(C(O)CNCC(O)C2CCc3ccccc3O2)CCc2ccccc2O1 (stereo not drawn) [Compound 140, (A,B)-α-[[[2-(3,4-dihydro-2H-1-benzopyran-2-yl)-2-hydroxyethyl]amino]methyl]-3,4-dihydro-2-methyl-2H-1-benzopyran-2-methanol ethanedioate (1:1). monohydrate] | ≤ 6.52 nM | – | – |
| OC(CNCC(O)C1CCc2cc(F)ccc2O1)C1CCc2cc(F)ccc2O1 (stereo not drawn) [Compound 84] | – | – | > 24700 nM |
| OC(CNCC(O)C1CCc2cc(F)ccc2O1)C1CCc2ccccc2O1 (stereo not drawn) [Compound 91] | 2.06 nM | 6,250 | 12900 nM |
| OC(CNCC(O)C1CCc2ccccc2O1)C1CCc2ccccc2O1 (stereo not drawn) [Compound 76] | 2.3 nM | 2,614 | 5950 nM |
| Oc1ccc2c(c1)CCC(C(O)CNCC(O)C1CCc3cc(O)ccc3O1)O2 (stereo not drawn) [Compound 133] | 1.57 nM | – | – |
| Cc1cc(C)c2c(c1)OC(C(O)CNCC(O)C1CCc3ccccc3O1)CC2 (stereo not drawn) [Compound 104] | 3.27 nM | > 1923 | > 6290 nM |
| OC(CNCC(O)C1CCc2ccccc2O1)C1CCc2ccccc2O1 (stereo not drawn) [Compound 75] | 3.52 nM | 2,154 | 7580 nM |
| CC(O)(CNCC(O)C1CCc2ccccc2O1)C1CCc2ccccc2O1 (stereo not drawn) [Compound 92] | 1.04 nM | 12,500 | 13000 nM |
| Cc1ccc2c(c1)CCC(C(O)CNCC(O)C1CCc3ccccc3O1)O2 (stereo not drawn) [Compound 93] | 0.417 nM | 13,750 | 5740 nM |
| CS(=O)(=O)Nc1ccc2c(c1)CCC(C(O)CNCC(O)C1CCc3ccccc3O1)O2 (stereo not drawn) [Compound 135] | 136 nM | – | – |
| CC(O)(CNCC(C)(O)C1CCc2ccccc2O1)C1CCc2ccccc2O1 (stereo not drawn) [Compound 86] | 3.02 nM | 4,166 | 12600 nM |
| Oc1ccc2c(c1)CCC(C(O)CNCC(O)C1CCc3ccccc3O1)O2 (stereo not drawn) [Compound 130] | 0.804 nM | 1000 | 804 nM |
| OC(CNCC(O)C1CCc2ccccc2O1)C1CCc2ccccc2O1 (stereo not drawn) [Compound 88] | – | – | ≥ 27100 nM |
| Cc1ccc2c(c1)CCC(C(O)CNCC(O)C1CCc3ccccc3O1)O2 (stereo not drawn) [Compound 89] | 1.12 nM | 20,698 | 23200 nM |
| Cc1ccc2c(c1)OC(C(O)CNCC(O)C1CCc3ccccc3O1)CC2 (stereo not drawn) [Compound 98] | 6.52 nM | 2,400 | 15600 nM |

| Compound | IC50 (guinea pig atrium (β1)) | β2 /β1 (guinea pig trachea (β2)) | IC50 (guinea pig trachea (β2)) |
| --- | --- | --- | --- |
| OC(CNCC(O)C1CCc2ccc3c(c2O1)CCCC3)C1CCc2ccccc2O1 (stereo not drawn) [Compound 110] | 5.9 nM | – | – |
| Cc1ccc2c(c1)CCC(C(O)CNCC(O)C1CCc3cc(C)ccc3O1)O2 (stereo not drawn) [Compound 85] | 0.579 nM | 5,652 | 3270 nM |
| CC(=O)Nc1ccc2c(c1)CCC(C(O)CNCC(O)C1CCc3ccccc3O1)O2 (stereo not drawn) [Compound 96] | 3.05 nM | 108 | 328 nM |
| Cc1ccc2c(c1)OC(C(O)CNCC(O)C1CCc3ccccc3O1)CC2 (stereo not drawn) [Compound 99] | 1.64 nM | ≥ 15,873 | ≥ 26100 nM |
| OC(CNCC(O)C1CCc2ccccc2O1)C1CCc2ccccc2O1 (stereo not drawn) [Compound 82] | 6.77 nM | > 1,000 | > 6770 nM |
| Cc1ccc2c(c1)CCC(C(O)CNCC(O)C1CCc3ccccc3O1)O2 (stereo not drawn) [Compound 90] | 1.04 nM | ≥ 25,000 | ≥ 26100 nM |
| OC(CNCC(O)C1CCc2ccccc2O1)C1CCc2ccccc2O1 (stereo not drawn) [Compound 83] | 1.25 nM | > 5,435 | – |
| Cc1cc(C)c2c(c1)OC(C(O)CNCC(O)C1CCc3ccccc3O1)CC2 (stereo not drawn) [Compound 103] | 6.29 nM | > 4000 | > 25200 nM |
| OC(CNCC(O)C1CCc2ccccc2O1)C1CCc2ccccc2O1 (stereo not drawn) [Compound 138, (A,A)-α-[[[2-(3,4-dihydro-2H-1-benzopyran-2-yl)-2-hydroxyethyl]amino]methyl]-3,4-dihydro-2H-1-benzopyran-2-methanol ethanedioate (1:1)] | 27.1 nM | > 1000 | > 27100 nM |
| OC(CNCC(O)C1CCc2cc(Br)ccc2O1)C1CCc2ccccc2O1 (stereo not drawn) [Compound 63] | < 89.2 nM | – | – |
| CC(=O)Nc1ccc2c(c1)CCC(C(O)CNCC(O)C1CCc3ccccc3O1)O2 (stereo not drawn) [Compound 95] | 0.727 nM | 129 | 93.8 nM |
| Cc1ccc2c(c1)OC(C(O)CNCC(O)C1CCc3ccccc3O1)CC2 (stereo not drawn) [Compound 97] | 1.85 nM | 7,042 | 13000 nM |
| OC(CNCC(O)C1CCc2ccccc2O1)C1CCc2ccccc2O1 (stereo not drawn) [Compound 81] | 0.433 nM | 3,938 | 1710 nM |
| OC(CNCC(O)C1CCc2cc(Br)ccc2O1)C1CCc2cc(Br)ccc2O1 (stereo not drawn) [Compound 10, (B,B)-α,α'-[iminobismethylene]bis[6-bromo-3,4-dihydro-2H-1-benzopyran-2-methanol]] | 75.9 nM | – | – |
| OC(CNCC(O)C1CCc2ccccc2O1)C1CCc2ccccc2O1 (stereo not drawn) [Compound 77] | 1.46 nM | 4,074 | – |
| Cc1ccc2c(c1)CCC(C(O)CNCC(O)C1CCc3cc(C)ccc3O1)O2 (stereo not drawn) [Compound 113] | 6.29 nM | – | – |
| OC(CNCC(O)C1CCc2ccccc2O1)C1CCc2ccccc2O1 (stereo not drawn) [Compound 79] | 0.514 nM | 13,157 | 6770 nM |
| N#Cc1ccc2c(c1)CCC(C(O)CNCC(O)C1CCc3ccccc3O1)O2 (stereo not drawn) [Compound 51] | 6.34 nM | > 252 | > 1600 nM |
